Test results: patent US12240862B2, “Inhibitors of peptidylarginine deiminases” (Gilead Sciences, Inc., priority 2020, dated 2025)

target: T1, human PAD4 (Homo sapiens, UniProt Q9UM07); experiment: In vitro PAD4 BAEE biochemical assay; conditions: human PAD4, BAEE substrate; 5 nM PAD4, 2 mM calcium chloride, 3 mM BAEE; geometric mean of multiple experiments
T1 construct: human PAD4 (NM_012387), A2P663, was PCR amplified; His-SUMO (N, cleaved yes); made in house; host or cells: E. coli BL21(DE3)
Procedure, shortened: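 Ammonia release from BAEE deimination monitored by o-phthalaldehyde amine coupling (1 h, 25 °C) after EDTA stop. Final conditions: 5 nM tag-free recombinant human PAD4 (E. coli), 2 mM CaCl2, 3 mM BAEE, pH 7.6 MOPS with DTT; 30 min compound preincubation, then 2 h reaction at 25 °C.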

T1 sequence (Q9UM07 2-663): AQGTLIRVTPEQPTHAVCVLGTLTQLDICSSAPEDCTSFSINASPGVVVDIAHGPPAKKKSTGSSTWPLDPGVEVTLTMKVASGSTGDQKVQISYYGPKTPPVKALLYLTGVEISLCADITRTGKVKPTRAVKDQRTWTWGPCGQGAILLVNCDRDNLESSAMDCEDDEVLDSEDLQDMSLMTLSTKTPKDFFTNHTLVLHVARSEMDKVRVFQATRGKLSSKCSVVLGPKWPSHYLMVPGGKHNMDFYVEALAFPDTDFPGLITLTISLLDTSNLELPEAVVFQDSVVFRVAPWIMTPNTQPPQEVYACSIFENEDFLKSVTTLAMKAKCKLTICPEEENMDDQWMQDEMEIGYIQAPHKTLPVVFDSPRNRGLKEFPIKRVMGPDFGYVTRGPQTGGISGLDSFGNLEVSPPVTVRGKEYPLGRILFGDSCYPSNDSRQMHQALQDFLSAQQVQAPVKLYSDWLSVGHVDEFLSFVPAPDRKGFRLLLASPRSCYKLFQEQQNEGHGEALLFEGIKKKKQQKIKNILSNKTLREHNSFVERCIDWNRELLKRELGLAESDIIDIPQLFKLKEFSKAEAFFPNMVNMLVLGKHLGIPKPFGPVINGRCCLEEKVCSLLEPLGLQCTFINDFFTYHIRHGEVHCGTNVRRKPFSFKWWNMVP

Row | IC50 | Structure (SMILES)
1 | 45.5 nM | COc1cc(C(=O)N2[C@H]3CC[C@@H]2[C@H](N)C3)cc2nc(-c3cc4ccc([C@@H](C)NC(=O)C(C)(C)C(=O)O)nc4n3CC3CC3)c(C)n12 [Example 155, 3-[[(1~{R})-1-[2-[7-[(1~{R},2~{R},4~{S})-2-amino-7-azabicyclo[2.2.1]heptane-7-carbonyl]-5-methoxy-3-methylimidazo [1,2-a]pyridin-2-yl]-1-(cyclopropylmethyl)pyrrolo [2,3-b]pyridin-6-yl]ethyl]amino]-2,2-dimethyl-3-oxopropanoic acid]
2 | 133 nM | COc1cc(C(=O)N2[C@H]3CC[C@@H]2[C@H](N)C3)cc2nc(-c3cc4ccc([C@@H](C)NC(=O)C56CC(C(F)(F)F)(C5)C6)nc4n3CC3CC3)c(C)n12 [Example 157, ~{N}-[(1~{R})-1-[2-[7-[(1~{R},2~{R},4~{S})-2-amino-7-azabicyclo[2.2.1]heptane-7-carbonyl]-5-methoxy-3-methylimidazo [1,2-a]pyridin-2-yl]-1-(cyclopropylmethyl)pyrrolo [2,3-b]pyridin-6-yl]ethyl]-3-(trifluoromethyl)bicyclo [1.1.1]pentane-1-carboxamide]
3 | 73.8 nM | COc1cc(C(=O)N2[C@H]3CC[C@@H]2[C@H](N)C3)cc2nc(-c3cc4ccc([C@@H](C)NC(=O)C56CC(C#N)(C5)C6)nc4n3CC3CC3)c(C)n12 [Example 158, ~{N}-[(1~{R})-1-[2-[7-[(1~{R},2~{R},4~{S})-2-amino-7-azabicyclo[2.2.1]heptane-7-carbonyl]-5-methoxy-3-methylimidazo [1,2-a]pyridin-2-yl]-1-(cyclopropylmethyl)pyrrolo [2,3-b]pyridin-6-yl]ethyl]-3-cyanobicyclo[1.1.1]pentane-1-carboxamide]
4 | 58.3 nM | COC(=O)C12CC(C(=O)N[C@H](C)c3ccc4cc(-c5nc6cc(C(=O)N7[C@H]8CC[C@@H]7[C@H](N)C8)cc(OC)n6c5C)n(CC5CC5)c4n3)(C1)C2 [Example 159, methyl 3-[[(1~{R})-1-[2-[7-[(1~{R},2~{R},4~{S})-2-amino-7-azabicyclo[2.2.1]heptane-7-carbonyl]-5-methoxy-3-methylimidazo [1,2-a]pyridin-2-yl]-1-(cyclopropylmethyl)pyrrolo [2,3-b]pyridin-6-yl]ethyl]carbamoyl]bicyclo[1.1.1] pentane-1-carboxylate]
5 | 53.2 nM | COc1cc(C(=O)N2[C@H]3CC[C@@H]2[C@H](N)C3)cc2nc(-c3cc4ccc([C@@H](C)NC(=O)C56CC(C5)C6)nc4n3CC3CC3)c(C)n12 [Example 160, ~{N}-[(1~{R})-1-[2-[7-[(1~{R},2~{R},4~{S})-2-amino-7-azabicyclo[2.2.1]heptane-7-carbonyl]-5-methoxy-3-methylimidazo [1,2-a]pyridin-2-yl]-1-(cyclopropylmethyl)pyrrolo [2,3-b]pyridin-6-yl]ethyl]bicyclo[1.1.1]pentane-1-carboxamide]
6 | 79.8 nM | COc1cc(C(=O)N2[C@H]3CC[C@@H]2[C@H](N)C3)cc2nc(-c3cc4ccc([C@@H](C)NC(=O)CC(C)(C)C(=O)O)nc4n3CC3CC3)c(C)n12 [Example 161, 4-[[(1~{R})-1-[2-[7-[(1~{R},2~{R},4~{S})-2-amino-7-azabicyclo[2.2.1]heptane-7-carbonyl]-5-methoxy-3-methylimidazo [1,2-a]pyridin-2-yl]-1-(cyclopropylmethyl)pyrrolo [2,3-b]pyridin-6-yl]ethyl]amino]-2,2-dimethyl-4-oxobutanoic acid]
7 | 99.1 nM | COc1cc(C(=O)N2[C@H]3CC[C@@H]2[C@H](N)C3)cc2nc(-c3cc4ccc([C@@H](C)NC(=O)C(F)(F)F)nc4n3CC3CC3)c(C)n12 [Example 162, ~{N}-[(1~{R})-1-[2-[7-[(1~{R},2~{R},4~{S})-2-amino-7-azabicyclo[2.2.1]heptane-7-carbonyl]-5-methoxy-3-methylimidazo [1,2-a]pyridin-2-yl]-1-(cyclopropylmethyl)pyrrolo [2,3-b]pyridin-6-yl]ethyl]-2,2,2-trifluoroacetamide]
8 | 79 nM | [2H]C([2H])([2H])OC(=O)N[C@H](C)c1ccc2cc(-c3nc4cc(C(=O)N5[C@H]6CC[C@@H]5[C@H](N)C6)cc(OC)n4c3C)n(CC3CC3)c2n1 [Example 164, trideuteriomethyl~{N}-[(1~{R})-1-[2-[7-[(1~{R},2~{R},4~{S})-2-amino-7-azabicyclo[2.2.1]heptane-7-carbonyl]-5-methoxy-3-methylimidazo[1,2-a]pyridin-2-yl]-1-(cyclopropylmethyl)pyrrolo [2,3-b]pyridin-6-yl]ethyl] carbamate]
9 | 60.5 nM | COc1cc(C(=O)N2[C@H]3CC[C@@H]2[C@H](N)C3)cc2nc(-c3cc4ccc([C@@H](C)NC(=O)C5(C#N)CC5)nc4n3CC3CC3)c(C)n12 [Example 165, ~{N}-[(1~{R})-1-[2-[7-[(1~{R},2~{R},4~{S})-2-amino-7-azabicyclo[2.2.1]heptane-7-carbonyl]-5-methoxy-3-methylimidazo [1,2-a]pyridin-2-yl]-1-(cyclopropylmethyl)pyrrolo [2,3-b]pyridin-6-yl]ethyl]-1-cyanocyclopropane-1-carboxamide]

Second part, the compound before the results:

Row | Structure (SMILES) | IC50
10 | COc1cc(C(=O)N2[C@H]3CC[C@@H]2[C@H](N)C3)cc2nc(-c3cc4ccc([C@@H](C)NC(=O)CCN5C(=O)NC(C)(C)C5=O)nc4n3CC3CC3)c(C)n12 [Example 148, ~{N}-[(1~{R})-1-[2-[7-[(1~{R},2~{R},4~{S})-2-amino-7-azabicyclo[2.2.1]heptane-7-carbonyl]-5-methoxy-3-methylimidazo [1,2-a]pyridin-2-yl]-1-(cyclopropylmethyl)pyrrolo [2,3-b]pyridin-6-yl]ethyl]-3-(4,4-dimethyl-2,5-dioxoimidazolidin-1-yl)propenamide] | 56.2 nM
11 | COc1cc(C(=O)N2[C@H]3CC[C@@H]2[C@H](N)C3)cc2nc(-c3cc4ccc([C@@H](C)NC(=O)C5CN(C(C)=O)C5)nc4n3CC3CC3)c(C)n12 [Example 149, 1-acetyl-~{N}-[(1~{R})-1-[2-[7-[(1~{R},2~{R},4~{S})-2-amino-7-azabicyclo [2.2.1]heptane-7-carbonyl]-5-methoxy-3-methylimidazo [1,2-a]pyridin-2-yl]-1-(cyclopropylmethyl)pyrrolo [2,3-b]pyridin-6-yl]ethyl] azetidine-3-carboxamide] | 77 nM
12 | COc1cc(C(=O)N2[C@H]3CC[C@@H]2[C@H](N)C3)cc2nc(-c3cc4ccc([C@@H](C)NC(=O)C5CCOCC5)nc4n3CC3CC3)c(C)n12 [Example 150, ~{N}-[(1~{R})-1-[2-[7-[(1~{R},2~{R},4~{S})-2-amino-7-azabicyclo[2.2.1]heptane-7-carbonyl]-5-methoxy-3-methylimidazo [1,2-a]pyridin-2-yl]-1-(cyclopropylmethyl)pyrrolo [2,3-b]pyridin-6-yl]ethyl] oxane-4-carboxamide] | 41 nM
13 | COc1cc(C(=O)N2[C@H]3CC[C@@H]2[C@H](N)C3)cc2nc(-c3cc4ccc([C@@H](C)NC(=O)C5(C)CC5)nc4n3CC3CC3)c(C)n12 [Example 151, ~{N}-[(1~{R})-1-[2-[7-[(1~{R},2~{R},4~{S})-2-amino-7-azabicyclo[2.2.1]heptane-7-carbonyl]-5-methoxy-3-methylimidazo [1,2-a]pyridin-2-yl]-1-(cyclopropylmethyl)pyrrolo [2,3-b]pyridin-6-yl]ethyl]-1-methylcyclopropane-1-carboxamide] | 59.8 nM
14 | CCOC(=O)CCC(=O)N[C@H](C)c1ccc2cc(-c3nc4cc(C(=O)N5[C@H]6CC[C@@H]5[C@H](N)C6)cc(OC)n4c3C)n(CC3CC3)c2n1 [Example 152, ethyl 4-[[(1~{R})-1-[2-[7-[(1~{R},2~{R},4~{S})-2-amino-7-azabicyclo[2.2.1]heptane-7-carbonyl]-5-methoxy-3-methylimidazo [1,2-a]pyridin-2-yl]-1-(cyclopropylmethyl)pyrrolo [2,3-b]pyridin-6-yl]ethyl]amino]-4-oxobutanoate] | 63.5 nM
15 | COc1cc(C(=O)N2[C@H]3CC[C@@H]2[C@H](N)C3)cc2nc(-c3cc4ccc([C@@H](C)NC(=O)CCS(C)(=O)=O)nc4n3CC3CC3)c(C)n12 [Example 153, ~{N}-[(1~{R})-1-[2-[7-[(1~{R},2~{R},4~{S})-2-amino-7-azabicyclo[2.2.1]heptane-7-carbonyl]-5-methoxy-3-methylimidazo [1,2-a]pyridin-2-yl]-1-(cyclopropylmethyl)pyrrolo [2,3-b]pyridin-6-yl]ethyl]-3-methylsulfonylpropanamide] | 68.7 nM
16 | COc1cc(C(=O)N2[C@H]3CC[C@@H]2[C@H](N)C3)cc2nc(-c3cc4ccc([C@@H](C)NC(=O)CS(C)(=O)=O)nc4n3CC3CC3)c(C)n12 [Example 154, ~{N}-[(1~{R})-1-[2-[7-[(1~{R},2~{R},4~{S})-2-amino-7-azabicyclo[2.2.1]heptane-7-carbonyl]-5-methoxy-3-methylimidazo [1,2-a]pyridin-2-yl]-1-(cyclopropylmethyl)pyrrolo[2,3-b]pyridin-6-yl]ethyl]-2-methylsulfonylacetamide] | 53.4 nM
17 | COc1cc(C(=O)N2[C@H]3CC[C@@H]2[C@H](N)C3)cc2nc(-c3cc4ccc([C@@H](C)NC(=O)CCC(=O)NS(=O)(=O)c5ccccc5)nc4n3CC3CC3)c(C)n12 [Example 156, ~{N}-[(1~{R})-1-[2-[7-[(1~{R},2~{R},4~{S})-2-amino-7-azabicyclo[2.2.1]heptane-7-carbonyl]-5-methoxy-3-methylimidazo [1,2-a]pyridin-2-yl]-1-(cyclopropylmethyl)pyrrolo [2,3-b]pyridin-6-yl]ethyl]-~{N}′-(benzenesulfonyl) butanediamide] | 20.3 nM
18 | COc1cc(C(=O)N2[C@H]3CC[C@@H]2[C@H](N)C3)cc2nc(-c3cc4ccc([C@@H](C)NC(=O)CCC(=O)O)nc4n3CC3CC3)c(C)n12 [Example 163, 4-[[(1~{R})-1-[2-[7-[(1~{R},2~{R},4~{S})-2-amino-7-azabicyclo[2.2.1]heptane-7-carbonyl]-5-methoxy-3-methylimidazo [1,2-a]pyridin-2-yl]-1-(cyclopropylmethyl)pyrrolo [2,3-b]pyridin-6-yl]ethyl]amino]-4-oxobutanoic acid] | 19.1 nM
